This experiment has as its system P388 leukemia ip, CD2F1 mice, survival T/C. In words: NCI In Vivo Anticancer Drug Screen. Data for tumor model P388 Leukemia (intraperitoneal) in CD2F1 (CDF1) mice. Particulars: endpoint: median survival time, higher = longer survival. Put shortly: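 Mice carrying the transplanted tumor received test compound or vehicle. Survival was recorded in each group, and the value is the treated-group measurement divided by that of the vehicle-treated control group.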

Where [1] appears, read: dose: 50.0 mg/kg/injection, schedule: Q01DX005 (ip), vehicle: Klucel (hydroxypropylcellulose) (HPC).
The mark [2] stands for this setting: dose: 100.0 mg/kg/injection, schedule: Q01DX005 (ip), vehicle: Klucel (hydroxypropylcellulose) (HPC).
The mark [3] stands for this setting: dose: 12.5 mg/kg/injection, schedule: Q01DX009 (ip), vehicle: other.
[4] abbreviates: dose: 25.0 mg/kg/injection, schedule: Q01DX009 (ip), vehicle: other.
The mark [5] stands for this setting: dose: 50.0 mg/kg/injection, schedule: Q01DX009 (ip), vehicle: other.
Where [6] appears, read: dose: 100.0 mg/kg/injection, schedule: Q01DX009 (ip), vehicle: other.
Setting [7] is: dose: 50.0 mg/kg/injection, schedule: Q01DX009 (ip), vehicle: Klucel (hydroxypropylcellulose) (HPC).
Where [8] appears, read: dose: 100.0 mg/kg/injection, schedule: Q01DX009 (ip), vehicle: Klucel (hydroxypropylcellulose) (HPC).
[9] abbreviates: dose: 200.0 mg/kg/injection, schedule: Q01DX009 (ip), vehicle: Klucel (hydroxypropylcellulose) (HPC).
Where [10] appears, read: dose: 400.0 mg/kg/injection, schedule: Q01DX009 (ip), vehicle: Klucel (hydroxypropylcellulose) (HPC).
[11] abbreviates: dose: 100.0 mg/kg/injection, schedule: Q04DX003 (ip), vehicle: saline with Tween-80.
Setting [12] is: dose: 200.0 mg/kg/injection, schedule: Q04DX003 (ip), vehicle: saline with Tween-80.
Where [13] appears, read: dose: 100.0 mg/kg/injection, schedule: Q01DX001 (ip), vehicle: Klucel (hydroxypropylcellulose) (HPC).
Where [14] appears, read: dose: 200.0 mg/kg/injection, schedule: Q01DX001 (ip), vehicle: Klucel (hydroxypropylcellulose) (HPC).
Where [15] appears, read: dose: 400.0 mg/kg/injection, schedule: Q01DX001 (ip), vehicle: Klucel (hydroxypropylcellulose) (HPC).
Setting [16] is: dose: 50.0 mg/kg/injection, schedule: Q01DX009 (ip), vehicle: saline with Tween-80.
Where [17] appears, read: dose: 100.0 mg/kg/injection, schedule: Q01DX009 (ip), vehicle: saline with Tween-80.
The mark [18] stands for this setting: dose: 200.0 mg/kg/injection, schedule: Q01DX009 (ip), vehicle: saline with Tween-80.

Values joined by “and” are separate entries in the source; they are usually repeats but may differ in a detail not shown here. Equal values may be shown once. Inconclusive results and toxic doses are left out.

`COc1ccc2nc(C)c3c(c2c1)C(=O)N(CCC[N+]1([O-])CC[N+]([O-])(CCCN2C(=O)c4c(c5cc(OC)ccc5[n+]([O-])c4C)C2=O)CC1)C3=O` (stereo not drawn): the T/C was 87 % of control (dose: 60.0 mg/kg/injection, schedule: Q01DX005 (ip), vehicle: saline with Tween-80); 89 % of control (dose: 120.0 mg/kg/injection, schedule: Q01DX005 (ip), vehicle: saline with Tween-80); 92 % of control (dose: 240.0 mg/kg/injection, schedule: Q01DX005 (ip), vehicle: saline with Tween-80).
On to `C(=C\c1ccncc1)/c1ccccc1`, for which the T/C runs as follows: under setting [1], 92 % of control; under setting [2], 90 % of control.
Regarding `Cn1nc2c(c1-c1ccncc1)CCc1ccccc1-2`, the T/C runs as follows: under setting [3], 110 % of control; under setting [4], 105 % of control; under setting [5], 115 % of control; under setting [6], 107 % of control; (dose: 200.0 mg/kg/injection, schedule: Q01DX009 (ip), vehicle: other) 103 % of control.
Take `NC(=O)NCCSC1(SCCNC(N)=O)CCCCC1`: the T/C runs as follows: under setting [7], 107 % of control; under setting [8], 103 % of control; under setting [9], 100 % of control; under setting [10], 99 % of control.
With `CCCCCCCC(=O)NC1CC(O[C@H]2C[C@](O)(C(=O)CO)Cc3c(O)c4c(c(O)c32)C(=O)c2c(OC)cccc2C4=O)OC(C)C1O` (stereo partly drawn), the T/C by setting is: (dose: 6.25 mg/kg/injection, schedule: Q01DX009 (ip), vehicle: other) 153 % of control; under setting [3], 177 % of control; under setting [4], 184 % of control; under setting [5], 155 % of control; under setting [6], 86 % of control.
As for `COC(=O)[CH2][Ge]([c]1ccccc1)[c]1ccccc1.COC(=O)[CH2][Ge]([c]1ccccc1)[c]1ccccc1`, the T/C runs as follows: (dose: 15.0 mg/kg/injection, schedule: Q01DX005 (ip), vehicle: Klucel (hydroxypropylcellulose) (HPC)) 97 % of control; (dose: 30.0 mg/kg/injection, schedule: Q01DX005 (ip), vehicle: Klucel (hydroxypropylcellulose) (HPC)) 89 % of control; (dose: 60.0 mg/kg/injection, schedule: Q01DX005 (ip), vehicle: Klucel (hydroxypropylcellulose) (HPC)) 89 % of control.
As to `N#CCN=C(N)NN`, the T/C by setting is: (dose: 100.0 mg/kg/injection, schedule: Q04DX003 (ip), vehicle: Klucel (hydroxypropylcellulose) (HPC)) 105 % of control; (dose: 200.0 mg/kg/injection, schedule: Q04DX003 (ip), vehicle: Klucel (hydroxypropylcellulose) (HPC)) 94 % of control; (dose: 400.0 mg/kg/injection, schedule: Q04DX003 (ip), vehicle: Klucel (hydroxypropylcellulose) (HPC)) 108 % of control.
`CSCCC(NC(=O)C(Cl)Cl)C(=O)O` (stereo not drawn): the T/C runs as follows: under setting [1], 100 % of control; under setting [2], 96 % of control; (dose: 200.0 mg/kg/injection, schedule: Q01DX005 (ip), vehicle: Klucel (hydroxypropylcellulose) (HPC)) 100 % of control.
Take `COc1ccc(-c2cc(=O)c3c(O)cc(OC)cc3o2)cc1`: the T/C reads like this: under setting [11], 95 % of control; under setting [12], 90 % of control; (dose: 400.0 mg/kg/injection, schedule: Q04DX003 (ip), vehicle: saline with Tween-80) 90 % of control.
Consider `CCOc1ccc2nc3ccccc3c(N)c2c1`, for which the T/C (dose: 7.5 mg/kg/injection, schedule: Q01DX005 (ip), vehicle: saline with Tween-80) is 103 % of control and 112 % of control; the T/C (dose: 15.0 mg/kg/injection, schedule: Q01DX005 (ip), vehicle: saline with Tween-80) is 113 % of control; the T/C (dose: 30.0 mg/kg/injection, schedule: Q01DX005 (ip), vehicle: saline with Tween-80) is 124 % of control.
Regarding `COC(=O)c1ccccc1NC(c1ccccn1)c1ccc2cccnc2c1O` (stereo not drawn), the T/C reads like this: (dose: 50.0 mg/kg/injection, schedule: Q01DX009 (ip), vehicle: DMSO) 111 % of control; under setting [7], 109 % of control; (dose: 100.0 mg/kg/injection, schedule: Q01DX009 (ip), vehicle: DMSO) 116 % of control; under setting [8], 94 % of control; under setting [9], 106 % of control; under setting [10], 100 % of control.
As to `Cc1csc(NC(=S)NC(=O)c2ccccc2)n1`, the T/C is 91 % of control under setting [11] and 90 % of control under setting [12].
Take `c1ccc(SCCC(Sc2ccccc2)Sc2ccccc2)cc1`: the T/C was 100 % of control (dose: 50.0 mg/kg/injection, schedule: Q01DX009 (ip), vehicle: saline); 106 % of control (dose: 100.0 mg/kg/injection, schedule: Q01DX009 (ip), vehicle: saline); 106 % of control (dose: 200.0 mg/kg/injection, schedule: Q01DX009 (ip), vehicle: saline).
For the compound `Cc1ccc(N2C(=S)N(c3cccc(Cl)c3Cl)C(=O)C(N=Nc3cccc(Cl)c3Cl)C2O)cc1` (stereo not drawn), the T/C under setting [13] was 97 % of control, the T/C under setting [14] is 98 % of control and the T/C under setting [15] was 97 % of control.
Consider `COc1ccc2c(c1)[C@@]13CCCC[C@H]1[C@H](N(C)CC3)C21CC1`, for which the T/C is, setting by setting: under setting [13], 97 % of control; under setting [14], 102 % of control.
As to `CCOC(=O)CC(=O)c1sc(SC)c(C#N)c1N`, the T/C is, setting by setting: (dose: 50.0 mg/kg/injection, schedule: Q01DX005 (ip), vehicle: saline with Tween-80) 106 % of control; (dose: 100.0 mg/kg/injection, schedule: Q01DX005 (ip), vehicle: saline with Tween-80) 100 % of control; (dose: 200.0 mg/kg/injection, schedule: Q01DX005 (ip), vehicle: saline with Tween-80) 93 % of control.
For the compound `CCCC(O)(CC)/C(C)=N/O` (stereo not drawn), the T/C reads like this: under setting [16], 96 % of control; under setting [17], 91 % of control; under setting [18], 91 % of control.
`CCOc1cc2cc(CCC(=O)O)c(C)cc2cn1`: the T/C reads like this: (dose: 12.5 mg/kg/injection, schedule: Q01DX009 (ip), vehicle: distilled water + Tween-80) 101 % of control; (dose: 25.0 mg/kg/injection, schedule: Q01DX009 (ip), vehicle: distilled water + Tween-80) 103 % of control; (dose: 50.0 mg/kg/injection, schedule: Q01DX009 (ip), vehicle: distilled water + Tween-80) 97 % of control; (dose: 100.0 mg/kg/injection, schedule: Q01DX009 (ip), vehicle: distilled water + Tween-80) 98 % of control; (dose: 200.0 mg/kg/injection, schedule: Q01DX009 (ip), vehicle: distilled water + Tween-80) 107 % of control.
Regarding `Oc1ccc(Nc2ccc(N(CCCl)CCCl)cc2)c2ccccc12`, the T/C by setting is: (dose: 6.25 mg/kg/injection, schedule: Q01DX001 (ip), vehicle: Klucel (hydroxypropylcellulose) (HPC)) 123 % of control; (dose: 50.0 mg/kg/injection, schedule: Q01DX001 (ip), vehicle: Klucel (hydroxypropylcellulose) (HPC)) 192 % of control and 195 % of control.
`Cc1cc(=O)[nH]c2[nH][nH]c(=O)c12`: the T/C was 93 % of control (dose: 25.0 mg/kg/injection, schedule: Q01DX009 (ip), vehicle: saline with Tween-80); 93 % of control under setting [16]; 105 % of control under setting [17]; 90 % of control under setting [18].
As for `Fc1cccc(-n2nc3c(c2-c2cccnc2)CCCc2ccccc2-3)c1`, the T/C under setting [13] is 106 % of control, the T/C under setting [14] was 102 % of control and the T/C under setting [15] was 106 % of control.
For `N#Cc1ncnc2nc[nH]c12`, the T/C runs as follows: under setting [1], 101 % of control; under setting [2], 107 % of control.
Take `O=C1CCC(c2nnc(COc3ccc(Cl)cc3)o2)N1Cc1ccccc1` (stereo not drawn): the T/C runs as follows: (dose: 100.0 mg/kg/injection, schedule: Q01DX001 (ip), vehicle: saline with Tween-80) 99 % of control; (dose: 200.0 mg/kg/injection, schedule: Q01DX001 (ip), vehicle: saline with Tween-80) 102 % of control; (dose: 400.0 mg/kg/injection, schedule: Q01DX001 (ip), vehicle: saline with Tween-80) 98 % of control.
Turning to `O=C(Cc1ccccc1)c1ccc(C(F)(F)F)cc1`, the T/C was 104 % of control (dose: 12.5 mg/kg/injection, schedule: Q01DX009 (ip), vehicle: Klucel (hydroxypropylcellulose) (HPC)); 95 % of control (dose: 25.0 mg/kg/injection, schedule: Q01DX009 (ip), vehicle: Klucel (hydroxypropylcellulose) (HPC)); 104 % of control and 87 % of control under setting [7].

For the origin of these results see PubChem BioAssay AID330 (DTP/NCI, 2004).
